Measured values taken from the supplement of paper PMC11061612.

Assays:
[1] = compound: COc1cc2ncnc(Nc3ccc(F)c(Cl)c3)c2cc1OCCCN1CCOCC1 [Gefitinib]; details: max 10 µM
Procedure, shortened: (§1)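 In 1536-well plates, cancer cell lines in 7.5 μl DMEM/F12 or RPMI with 10% FBS spent 24 hours at 37°C and 5% CO2 and were then dosed for 72 hours with final DMSO typically 0.2%. Viability was read by CellTiter-Glo 2.0 luminescence and scaled between blank-well and DMSO-well means. The single-agent IC50 was fitted from dose responses using a logistic curve in a non-linear mixed effects model, and that logistic curve had two parameters.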

[2] = compound: CC1(C)CCC(CN2CCN(c3ccc(C(=O)NS(=O)(=O)c4ccc(NCC5CCOCC5)c([N+](=O)[O-])c4)c(Oc4cnc5[nH]ccc5c4)c3)CC2)=C(c2ccc(Cl)cc2)C1 [Venetoclax]; details: max 1 µM
Procedure, shortened: as §1

[3] = compound: CN(CC[C@H](CSC1=CC=CC=C1)NC2=C(C=C(C=C2)S(=O)(=O)NC(=O)C3=CC=C(C=C3)N4CCC(CC4)[C@H](C5=CC=CC=C5C6=CC=C(C=C6)Cl)O)S(=O)(=O)C(F)(F)F)CCO [AZD4320]; details: max 1 µM
Procedure, shortened: as §1

[4] = compound: C[C@@H](Oc1cc(-c2cnn(C3CCNCC3)c2)cnc1N)c1c(Cl)ccc(F)c1Cl [Crizotinib]; details: max 10 µM
Procedure, shortened: as §1

[5] = compound: Cn1cnc2c(F)c(Nc3ccc(Br)cc3Cl)c(C(=O)NOCCO)cc21 [Selumetinib]; details: max 10 µM
Procedure, shortened: as §1

[6] = compound: COc1cccc2c1C(=O)c1c(O)c3c(c(O)c1C2=O)C[C@@](O)(C(=O)CO)C[C@@H]3O[C@H]1C[C@H](N)[C@H](O)[C@H](C)O1 [Doxorubicin]; details: max 1 µM
Procedure, shortened: as §1

[7] = compound: NC1(c2ccc(-c3nc4ccn5c(=O)[nH]nc5c4cc3-c3ccccc3)cc2)CCC1 [MK-2206]; details: max 10 µM
Procedure, shortened: as §1

[8] = compound: CN(C)CCCOc1ccc(-c2ccc3ncc4c(c3c2)n(C2CCOCC2)c(=O)n4C)cn1 [AZD0156]; details: max 3 µM
Procedure, shortened: as §1

[9] = compound: Cc1cc2ncnn2cc1Nc1ncc2c(n1)n(C1CCOCC1)c(=O)n2C [AZD7648]; details: max 10 µM
Procedure, shortened: as §1

[10] = compound: N#Cc1cnc(Nc2cc(NC[C@H]3CNCCO3)c(C(F)(F)F)cn2)cn1 [SRA737]; details: max 10 µM
Procedure, shortened: as §1

[11] = compound: CS(=O)(=O)CCNCc1ccc(-c2ccc3ncnc(Nc4ccc(OCc5cccc(F)c5)c(Cl)c4)c3c2)o1 [Lapatinib]; details: max 10 µM
Procedure, shortened: as §1

[12] = compound: CC(=O)O[C@H]1C(=O)[C@@]2(C)[C@H]([C@H](OC(=O)c3ccccc3)[C@]3(O)C[C@H](OC(=O)[C@H](O)[C@@H](NC(=O)c4ccccc4)c4ccccc4)C(C)=C1C3(C)C)[C@]1(OC(C)=O)CO[C@@H]1C[C@@H]2O [Paclitaxel]; details: max 3 µM
Procedure, shortened: as §1

[13] = compound: C[C@@H](Nc1cc(F)cc(F)c1)c1cc(C(=O)N(C)C)cc2c(=O)cc(N3CCOCC3)oc12 [AZD8186]; details: max 10 µM
Procedure, shortened: as §1

[14] = compound: C1CC(C1)(C(=O)[O-])C(=O)[O-].N.N.[Pt+2] [Carboplatin]; details: max 10 µM
Procedure, shortened: as §1

[15] = compound: COc1cccc(OCCCN)c1-c1cc(Nc2cnc(C#N)cn2)n[nH]1 [Prexasertib]; details: max 1 µM
Procedure, shortened: as §1

[16] = compound: COc1cc([C@@H]2c3cc4c(cc3[C@@H](O[C@@H]3O[C@@H]5CO[C@@H](C)O[C@H]5[C@H](O)[C@H]3O)[C@H]3COC(=O)[C@H]23)OCO4)cc(OC)c1O [Etoposide]; details: max 10 µM
Procedure, shortened: as §1

[17] = compound: Nc1ccn([C@@H]2O[C@H](CO)[C@@H](O)C2(F)F)c(=O)n1 [Gemcitabine]; details: max 0.3 µM
Procedure, shortened: as §1

[18] = compound: O=C(c1cc(Cc2n[nH]c(=O)c3ccccc23)ccc1F)N1CCN(C(=O)C2CC2)CC1 [Olaparib]; details: max 10 µM
Procedure, shortened: as §1

[19] = compound: CC1=CN2[C@@H](C1)C=NC3=CC(=C(C=C3C2=O)OC)OCCCCCOC4=C(C=C5C(=C4)N=C[C@@H]6CC(=CN6C5=O)C)OC [SG3199]; details: max 0.001 µM
Procedure, shortened: as §1

[20] = compound: O=c1[nH]cc(F)c(=O)[nH]1 [5-Fluorouracil]; details: max 20 µM
Procedure, shortened: as §1

[21] = compound: C=CCn1c(=O)c2cnc(Nc3ccc(N4CCN(C)CC4)cc3)nc2n1-c1cccc(C(C)(C)O)n1 [AZD1775]; details: max 3 µM
Procedure, shortened: as §1

[22] = compound: CC(=O)c1c(C)c2cnc(Nc3ccc(N4CCNCC4)cn3)nc2n(C2CCCC2)c1=O [Palbociclib]; details: max 10 µM
Procedure, shortened: as §1

[23] = compound: COc1cc(Nc2ncc3c(n2)-c2ccc(Cl)cc2C(c2c(F)cccc2OC)=NC3)ccc1C(=O)O [Alisertib]; details: max 10 µM
Procedure, shortened: as §1

[24] = compound: COc1nnc2ccc(N3CCC(c4ccc(OCCN5CCN(C)C(=O)[C@H]5C)cc4)CC3)nn12 [AZD5153]; details: max 1 µM
Procedure, shortened: as §1

[25] = compound: Cc1nc(-c2cn3c(n2)-c2ccc(-c4cnn(C(C)(C)C(N)=O)c4)cc2OCC3)n(C(C)C)n1 [Taselisib]; details: max 10 µM
Procedure, shortened: as §1

[26] = compound: CCc1c2c(nc3ccc(O)cc13)-c1cc3c(c(=O)n1C2)COC(=O)[C@]3(O)CC [SN-38]; details: max 0.3 µM
Procedure, shortened: as §1

[27] = compound: O=C(Nc1ccc2[nH]nc(-c3ccncc3)c2c1)[C@@H]1CCN(CC(=O)N2CCN(c3ccc(-c4ncccn4)cc3)CC2)C1; details: max 5 µM
Procedure, shortened: as §1

[28] = compound: CC1=C(C(=CC=C1)Cl)NC(=O)C2=CN=C(S2)NC3=CC(=NC(=N3)C)N4CCN(CC4)CCO [Dasatinib]; details: max 2 µM
Procedure, shortened: as §1

[29] = compound: CC(=O)Nc1cccc(-n2c(=O)n(C3CC3)c(=O)c3c(Nc4ccc(I)cc4F)n(C)c(=O)c(C)c32)c1 [Trametinib]; details: max 1 µM
Procedure, shortened: as §1

[30] = compound: C[C@@H](c1ccc2nccn2c1)n1nnc2ncc(-c3cnn(C)c3)nc21 [Savolitinib]; details: max 1 µM
Procedure, shortened: as §1

[31] = compound: C1CN(CCC1(C(=O)N[C@@H](CCO)C2=CC=C(C=C2)Cl)N)C3=NC=NC4=C3C=CN4 [AZD5363]; details: max 10 µM
Procedure, shortened: as §1

[32] = compound: C[C@@H]1COCCN1C2=NC(=NC(=C2)C3(CC3)[S@](=N)(=O)C)C4=C5C=CNC5=NC=C4 [AZD6738]; details: max 10 µM
Procedure, shortened: as §1

[33] = compound: Cc1c2c(nn1C)CSCc1cc(n(C)n1)CSc1cc(c3ccccc3c1)OCCCc1c(C(=O)O)n(C)c3c-2c(Cl)ccc13 [AZD5991]; details: max 1 µM
Procedure, shortened: as §1

[34] = compound: CCN(CCO)CCCOc1ccc2c(Nc3cc(CC(=O)Nc4cccc(F)c4)[nH]n3)ncnc2c1 [AZD2811]; details: max 1 µM
Procedure, shortened: as §1

[35] = compound: CC(C)n1c(=O)n(C)c2cnc3cc(F)c(-c4ccc(OCCCN5CCCCC5)nc4)cc3c21 [AZD1390]; details: max 0.3 µM
Procedure, shortened: as §1

Cell Line	IC50, cell viability 72 h [1] [µM]	IC50, cell viability 72 h [2] [µM]	IC50, cell viability 72 h [3] [µM]	IC50, cell viability 72 h [4] [µM]	IC50, cell viability 72 h [5] [µM]	IC50, cell viability 72 h [6] [µM]	IC50, cell viability 72 h [7] [µM]	IC50, cell viability 72 h [8] [µM]	IC50, cell viability 72 h [9] [µM]	IC50, cell viability 72 h [10] [µM]	IC50, cell viability 72 h [11] [µM]	IC50, cell viability 72 h [12] [µM]	IC50, cell viability 72 h [13] [µM]	IC50, cell viability 72 h [14] [µM]	IC50, cell viability 72 h [15] [µM]	IC50, cell viability 72 h [16] [µM]	IC50, cell viability 72 h [17] [µM]	IC50, cell viability 72 h [18] [µM]	IC50, cell viability 72 h [19] [µM]	IC50, cell viability 72 h [20] [µM]	IC50, cell viability 72 h [21] [µM]	IC50, cell viability 72 h [22] [µM]	IC50, cell viability 72 h [23] [µM]	IC50, cell viability 72 h [24] [µM]	IC50, cell viability 72 h [25] [µM]	IC50, cell viability 72 h [26] [µM]	IC50, cell viability 72 h [27] [µM]	IC50, cell viability 72 h [28] [µM]	IC50, cell viability 72 h [29] [µM]	IC50, cell viability 72 h [30] [µM]	IC50, cell viability 72 h [31] [µM]	IC50, cell viability 72 h [32] [µM]	IC50, cell viability 72 h [33] [µM]	IC50, cell viability 72 h [34] [µM]	IC50, cell viability 72 h [35] [µM]
SNU-423 (Hepatocellular Carcinoma)	> 10	> 1	> 1	> 10	> 10	> 1	> 10	> 3	> 10	> 10	> 10	0.124	> 10	> 10	0.166	> 10	> 0.3	> 10	> 0.001	> 20	2.15	> 10	> 10	> 1	> 10	> 0.3	> 5	> 2	> 1	> 1	> 10	> 10	> 1	> 1	> 0.3
T84 (Colorectal Carcinoma)	> 10	> 1	> 1	> 10	> 10	> 1	> 10	> 3	> 10	4.61	> 10	0.548	> 10	> 10	0.0897	> 10	0.276	> 10	> 0.001	> 20	1.31	> 10	> 10	> 1	4.66	0.131	> 5	> 2	0.804	> 1	> 10	6.78	> 1	> 1	> 0.3
ZR-75-30 (Breast Carcinoma)	> 10	> 1	> 1	> 10	> 10	> 1	> 10	> 3	> 10	> 10	0.869	> 3	> 10	> 10	> 1	> 10	> 0.3	> 10	> 0.001	> 20	> 3	> 10	> 10	> 1	9.52	> 0.3	> 5	> 2	> 1	> 1	> 10	> 10	> 1	> 1	> 0.3
